For one series, the system named is Anatidae. The conditions noted are these: short-term; oral; feed; mortality.
A further series concerns Apis mellifera. The conditions noted are these: acute, mortality.
The next series concerns Canidae. To be noted: chronic; duration: 2 years; oral; Dog Other; clinical chemistry.
In the next series the test system is Daphnia magna. To be noted: chronic/long-term; duration: 21 days; reproduction.
The subject of the next series is Typhlodromus pyri. To be noted: not reported; reproduction.
The test system of another series is Aphidius rhopalosiphi. The experiment in a line: LR50; higher = less toxic. The conditions noted are these: not reported; mortality.

SMILES strings stand for the structures.

With `CCOP(=O)=O.CCOP(=O)=O.CCOP(=O)=O.[Al+3]` [Fosetyl aluminum], the LD50 (acute, mortality) was over 7080 mg/kg; the LD50 with Apis mellifera (dermal) was over 1000 µg/piece; the LD50 in the series on Apis mellifera (duration: 48 hours, oral, unspecified) stood at 462 µg/piece; the LD50 with Coturnix coturnix (acute, oral, mortality) worked out at 5000 mg/kg. This compound yielded an NOEC (reproductive, oral, feed) of 439 mg/kg-day; an NOEC with Coturnix coturnix (reproduction developmental) of 216 mg/kg-day; an NOEC in the series on Daphnia magna of 17 mg/L; an NOEC in the series on Oncorhynchus mykiss (chronic/long-term, duration: 28 days, growth) of 100 mg/L; an NOEC with Tagia sp. (chronic/long-term, reproduction) of 1670 mg/kg. Moreover, the LC50 in the series with Anatidae is over 3540 mg/kg-day; in the series on Oncorhynchus mykiss (acute, duration: 96 hours, mortality) it was over 60 µg/mL; with Tagia sp. (acute, mortality), over 1000 mg/kg. Also, the NOAEL with Canidae came out at 300 mg/kg-day; in the series on Rattus norvegicus (chronic, duration: 2 years, oral, clinical chemistry) it was 300 mg/kg-day; with Rattus norvegicus (subchronic, duration: 90 days, histopathology: nonneoplastic), 500 mg/kg-day. The LEL with Typhlodromus pyri came to 15000 g/ha. In the series with Aphidius rhopalosiphi, this compound had an LR50 of over 64000 g/ha.

The values are drawn from EPA's ToxValDB 9.5 (doi:10.2903/j.efsa.2006.54).
